From patent US7390910B2, “Compounds for treating tumors” (priority 2003, dated 2008)
Where a SMILES comes first, the peptide text is derived from it. [ ]: non-standard residue; d: D form. The star is where a group is joined. NMePhe(β,β-Me2) = CN[C@H](C(=O)O)C(C)(C)c1ccccc1; Tle = CC(C)(C)[C@H](N)C(=O)O; NMeV = CN[C@H](C(=O)O)C(C)C; NHBn = c1ccc(CN*)cc1

How the values were obtained:
KBV1 = assay: cells; assay type: cell-based; details: for inhibition at 3 µM: KB-V1, 3000 nM; for IC50: 3 days, SRB
Description: (§1) Cell Survival Assay: Standard Pharmacological Test Procedure. […] Compounds are incubated with cells for 3 days.

KB85 = assay: cells; assay type: cell-based; details: for IC50: 3 days, SRB
Description: as §1

KB cells = assay: cells; assay type: cell-based; details: for IC50: 3 days, SRB; for inhibition at 3 µM: 3000 nM
Description: as §1

[1] = test system: bovine microtubule-associated protein (MAP)-rich tubulin; assay type: biochemical; details: 0.3 uM
Description: Tubulin Polymerization Assays. For in vitro tubulin polymerization assays, bovine microtubule-associated protein (MAP)-rich tubulin, PEM buffer [80 mM Na-PIPES (pH 6.9), 1 mM MgCl2, and 1 mM EGTA], and GTP are purchased from Cytoskeleton (Denver, Colo.). MAP-rich tubulin (final concentration 1.5 mg/ml) is dissolved in cold PEM buffer containing 1 mM GTP (GPEM) and centrifuged at 12,000×g for 10 min at 4° C. The tubulin solution (100 μl/well) is added rapidly to wells of a low-volume, 96-well plate already containing duplicate aliquots (10 μl) of test compounds in GPEM. […] Control wells contained the same final concentration of DMSO (0.3%). After initiation of the reaction, absorbance at 340 nm is measured every minute for 60 min at 24° C. using a SpectraMax Plus plate reader (Molecular Devices, Sunnyvale, Calif.).

CN[C@H](C(=O)N[C@H](C(=O)N(C)[C@H](C(=O)N1CCC[C@H]1C(=O)N1CCC[C@H]1C(=O)NCc1ccccc1)C(C)C)C(C)(C)C)C(C)(C)c1ccccc1 [Example 34, N,β,β-trimethyl-L-phenylalanyl-3-methyl-L-valyl-N-methyl-L-valyl-L-prolyl-N-benzyl-L-prolinamide] (H-[NMePhe(β,β-Me2)][Tle][NMeV]PP-NHBn)
inhibition at 3 µM (KBV1; Homo sapiens): 5% | IC50 (KBV1; Homo sapiens, KB-V1, 72 h): 1950 nM | IC50 (KB85; 72 h): 4.2 nM | IC50 (KB cells; Homo sapiens, KB, 72 h): 0.25 nM | Tubulin Polym. % inhibition at 0.3 uM [1]: 64%

CCOS(=O)(=O)/C(C)=C/[C@H](C(C)C)N(C)C(=O)[C@@H](NC(=O)[C@@H](NC)C(C)(C)c1ccccc1)C(C)(C)C [Example 65, N,β,β-trimethyl-L-phenylalanyl-N^1-[(1S,2E)-3-(ethoxysulfonyl)-1-isopropylbut-2-enyl]-N^1,3-dimethyl-L-valinamide]
inhibition at 3 µM (KBV1; Homo sapiens): 0% | inhibition at 3 µM (KB85; 3000 nM): 1% | inhibition at 3 µM (KB cells; Homo sapiens, 72 h): 11% | Tubulin Polym. % inhibition at 0.3 uM [1]: 44%

N,β,β-trimethyl-L-phenylalanyl-N^1-{(1S,2E)-4-[(2S)-2-(2-phenethoxycarbonyl)pyrrolidin-1-yl]-1-isopropyl-3-methyl-4-oxobut-2-enyl}-N^1,3-dimethyl-L-valinamid [Example 37]
IC50 (KBV1): 1640 nM | IC50 (KB85): 21 nM | IC50 (KB cells): 6.4 nM | Tubulin Polym. % inhibition at 0.3 uM [1]: 86%

CN[C@H](C(=O)N[C@H](C(=O)N(C)[C@H](/C=C(\C)C(=O)N1CCC[C@H]1C(=O)O)C(C)C)C(C)(C)C)C(C)(C)C1CCCCC1 [Example 46, 3-cyclohexyl-N-methyl-L-valyl-N^1-{(1S,2E)-4-[(2S)-2-carboxypyrrolidin-1-yl]-1-isopropyl-3-methyl-4-oxobut-2-enyl}-N^1,3-dimethyl-L-valinamide]
inhibition at 3 µM (KBV1; Homo sapiens): 1% | IC50 (KB85; 72 h): 1720 nM | IC50 (KB cells; Homo sapiens, KB, 72 h): 450 nM | Tubulin Polym. % inhibition at 0.3 uM [1]: 99%

CN[C@H](C(=O)N[C@H](C(=O)N(C)[C@H](/C=C/P(=O)(O)OC)C(C)C)C(C)(C)C)C(C)(C)c1ccccc1 [Example 69, N,β,β-trimethyl-L-phenylalanyl-N^1-{(1S,2E)-3-[hydroxy(methoxy)phosphoryl]-1-isopropylprop-2-enyl}-N^1,3-dimethyl-L-valinamide]
inhibition at 3 µM (KBV1; Homo sapiens): 3% | inhibition at 3 µM (KB85; 3000 nM): 0% | inhibition at 3 µM (KB cells; Homo sapiens, 72 h): 0% | Tubulin Polym. % inhibition at 0.3 uM [1]: 59%

CN[C@H](C(=O)N[C@H](C(=O)N(C)[C@H](/C=C(\C)C(=O)O)C(C)C)C(C)(C)C)c1ccccc1 [Example 57, (2E,4S)-2,5-dimethyl-4-(methyl{3-methyl-N-[(2S)-2-(methylamino)-2-phenylethanoyl]-L-valyl}amino)-2-hexenoic acid]
inhibition at 3 µM (KBV1; Homo sapiens): 7% | IC50 (KB85; 72 h): 2610 nM | IC50 (KB cells; Homo sapiens, KB, 72 h): 1760 nM | Tubulin Polym. % inhibition at 0.3 uM [1]: 75%

CN[C@@H](C(=O)N[C@H](C(=O)N(C)[C@H](/C=C(\C)C(=O)O)C(C)C)C(C)(C)C)C12CC3CC(CC(C3)C1)C2 [Example 56, (2E,4S)-4-[{N-[(2R)-2-(1-adamantyl)-2-(methylamino)ethanoyl]-3-methyl-L-valyl}(methyl)amino]-2,5-dimethyl-2-hexenoic acid]
inhibition at 3 µM (KBV1; Homo sapiens): 11% | IC50 (KB85; 72 h): 575 nM | IC50 (KB cells; Homo sapiens, KB, 72 h): 468 nM

Ethyl (E,4S)-4-[((2S)-2-{[(2S)-2-azido-3-methyl-3-phenylbutanoyl]amino}-3,3 -dimethylbutanoyl)(methyl)amino]-2,5-dimethyl-2-hexenoate and ethyl (E,4S)-4-[((2S)-2-{[(2R)-2-azido-3-methyl-3-phenylbutanoyl]amino}-3,3-dimethylbutanoyl)(methyl)amino]-2,5-dimethyl-2-hexenoate [Example 93]
KBV1 % inhibition @ 3000 nM (KBV1; 3000 nM): 30% | KB85 % inhibition @ 3000 nM (KB85; 3000 nM): 30% | IC50 (KB cells): 2510 nM
